Reference: publication PMC12504763, “Antiproliferation, 3D-multicellular spheroid and VEGFR-2 inhibitory properties of spiroindolin-2-ones with phosphonate function” (Scientific Reports, 2025)

What was measured:
Assay type in all cases: cell-based, human
TNF-α [1] = test: TNF-α inhibitory properties (ELISA), PaCa2 cell lysate; settings: at 10 μM; for TNF-α pg/mL (± SEM) PaCa2: control 111.8 ± 2.0
TNF-α [2] = test: TNF-α inhibitory properties (ELISA), HCT116 cell lysate; settings: at 10 μM; for TNF-α pg/mL (± SEM) HCT116: control 95.74 ± 0.5
TNF-α [3] = test: TNF-α inhibitory properties (ELISA), MCF7 cell lysate; settings: at 10 μM; for TNF-α pg/mL (± SEM) MCF7: control 83.26 ± 1.1

Row | SMILES | TNF-α % inhibition PaCa2 (TNF-α [1]) [%] | TNF-α pg/mL (± SEM) PaCa2 (TNF-α [1]) [pg/mL] | TNF-α % inhibition HCT116 (TNF-α [2]) [%] | TNF-α pg/mL (± SEM) HCT116 (TNF-α [2]) [pg/mL] | TNF-α % inhibition MCF7 (TNF-α [3]) [%] | TNF-α pg/mL (± SEM) MCF7 (TNF-α [3]) [pg/mL]
1 | CC(C)Cc1ccc(C(C)C(=O)O)cc1 (stereo not drawn) [Ibuprofen, reference compound] | 42.0 | 64.8 ± 0.6 | 22.2 | 74.5 ± 1.1 | 7.8 | 76.8 ± 2.0
2 | COc1ccc2c(c1)c(CC(=O)O)c(C)n2C(=O)c1ccc(Cl)cc1 [Indomethacin, reference compound] | 32.6 | 75.3 ± 2.1 | 42.8 | 54.8 ± 0.7 | 22.9 | 64.2 ± 1.6
